# Experimental data taken from patent US5270334A, “4-methoxy-5-methyl-pyran-3-ol natural products and derivatives thereof” (E. R. Squibb & Sons, Inc., priority 1992, dated 1993).
# Like-named read-outs stand apart in the source and are kept apart here.
# Experiments:
# Type in all cases: cell-based
# [1] = system: dermatophytes; test: antifungal activity of lanomycin; conditions: in words
# Protocol: (§1) *Minimal inhibitory concentrations were determined by agar dilution assay
# (§2) MICs were determined as in Table 5 except that the inoculum was 10^3 cfu.
# [2] = system: Microsporum canis; test: Activity of lanomycin against filamentous fungi, agar dilution (Table 6); conditions: SC9237; Microsporum canis SC 9237; 10^3 cfu
# Protocol: MICs were determined by the agar dilution method using a medium composed of tryptone (5 g), malt extract (3 g), glucose (10 g) and yeast extract (3 g) in 1 L distiled water; 10^4 cfu of the test organism was applied to the agar.
# as §2
# [3] = system: Candida species; test: antifungal activity of lanomycin; conditions: in words, Table 4
# Protocol: as §1
# [4] = target: T1, lanosterol demethylase of Candida albicans (Candida albicans, UniProt P10613); test: inhibition of lanosterol demethylase, radiolabeled metabolic assay (14C-acetate, lanosterol accumulation); conditions: Candida albicans SC5314, 14C-acetate, 30°
# T1 construct: 14C-acetate sterol labelling, TLC
# Protocol: The inhibition of lanosterol demethylase was determined by two methods: the spectrophotometric carbon monoxide binding assay of Omura and Sato (J. Biol. Chem. 239:2370-2378, 1964) and by a radiolabeled metabolic assay.
# The ability of scopularin and its alcohol to inhibit the lanosterol demethylase of Candida albicans can also be visualized by a metabolic assay. Candida albicans, SC5314, was grown overnight at 30° with shaking in the same medium as that used above. Cells were harvested by centrifugation and resuspended in water to give an optical density of 0.3 at 660 nm. 750 μl of this cell suspension, 300 μl of a medium containing 0.35 g Difco yeast nitrogen base without amino acids, 1 g glucose and distilled water to 10 ml, 100 μl of test material and distilled water were combined to give a final volume of 1.425 ml. This was incubated for 15 minutes at 30° C. with shaking, then 3 μCi ^14 C-acetate was added and continued to incubate for 1 hour. Cells were harvested by centrifugation and extracted with 2×0.5 ml methanol; centrifuged, decanted supernate and repeated the extraction with […] methanol-benzene (1:1). Centrifuged, decanted; combined supernates, dried and resuspended in 100 μl chloroform-methanol (1:1). The aliquots were spotted onto silica gel 60 (Merck) plates and developed chromatographically in a solvent containing dichloromethane-acetone (60:1). […]
# [5] = system: Microsporum canis; test: MIC of scopularin, agar dilution assay (K-10 agar); conditions: SC9237, 18 h; Microsporum canis SC 9237
# Protocol: (§3) The following methodology was used to determine the miniumum inhibitory concentration (hereinafter referred to as MIC) of scopularin.
# (§4) The aerobic test organisms were grown in approximately 15-20ml of Antibiotic Assay Broth (Difco) by inoculating (in tubes) the broth with a loopful of the organism from a BHI (Difco) agar slant. The inoculated tubes were incubated at 37° C. for 18 to 24 hours. These cultures are assumed to contain 10^7 colony forming units (CFU) per ml and the cultures were diluted 1:100 to give a final inoculum level of 10^5 CFU; dilutions were made with Yeast Beef Broth (Difco).
# (§5) Scopularin was dissolved in an appropriate diluent at a concentration of 1,000 μg/ml. Two-fold dilutions were made in Yeast Beef Broth (Difco), resulting in a range from 1000 µg/ml to 0.5 μg/ml. 1.5 ml of each dilution was placed into individual petri dishes to which 13.5ml of K-10 agar was added. The composition of K-10 agar is:
# (§6) The final drug concentration in the agar ranged from 100 μg/ml to 0.05 μg/ml. Organism growth control plates containing agar only were prepared and inoculated before and after the test plates. The organisms were applied to the agar surface of each plate with a Denly Multipoint Inoculator (which delivers approximately 0.001 ml of each organism) resulting in a final inoculum of 10^4 CFU on the agar surface.
# (§7) The plates were incubated at 37° C. for 18 hours and the MICs determined. The MIC is the lowest concentration of compound inhibiting growth of the organism.
# [6] = system: Candida krusei; test: MIC of scopularin, agar dilution assay (K-10 agar); conditions: Pichia kudriavzevii
# Protocol: as §3, §4, §5, §6, §7
# [7] = system: Candida pseudotropicalis; test: MIC of scopularin, agar dilution assay (K-10 agar); conditions: Kluyveromyces marxianus, SC11, 18 h; Candida pseudotropicalis SC 11,241
# Protocol: as §3, §4, §5, §6, §7
# [8] = system: Candida parakrusei; test: MIC of scopularin, agar dilution assay (K-10 agar)
# Protocol: as §3, §4, §5, §6, §7
# [9] = system: Candida glabrata; test: MIC of scopularin, agar dilution assay (K-10 agar); conditions: Nakaseomyces glabratus, SC11, 18 h; Candida glabrata SC 11,267
# Protocol: as §3, §4, §5, §6, §7
# [10] = system: Candida guilliermondii; test: MIC of scopularin, agar dilution assay (K-10 agar); conditions: Meyerozyma guilliermondii
# Protocol: as §3, §4, §5, §6, §7
# [11] = system: Aspergillus fumigatus; test: MIC of scopularin, agar dilution assay (K-10 agar); conditions: SC2100, 18 h; Aspergillus fumigatus SC 2100
# Protocol: as §3, §4, §5, §6, §7
# [12] = system: Candida albicans; test: MIC of scopularin, agar dilution assay (K-10 agar)
# Protocol: as §3, §4, §5, §6, §7
# [13] = system: Trichophyton rubrum; test: MIC of scopularin, agar dilution assay (K-10 agar); conditions: SC9199, 18 h; Trichophyton rubrum SC 9199
# Protocol: as §3, §4, §5, §6, §7
# [14] = system: Candida stellatoidea; test: MIC of scopularin, agar dilution assay (K-10 agar); conditions: Candida albicans, SC2211, 18 h; Candida stellatoidea SC 2211
# Protocol: as §3, §4, §5, §6, §7
# [15] = system: Epidermophyton floccosum; test: MIC of scopularin, agar dilution assay (K-10 agar); conditions: SC9185, 18 h; Epidermophyton floccosum SC 9185
# Protocol: as §3, §4, §5, §6, §7
# [16] = system: Candida tropicalis; test: MIC of scopularin, agar dilution assay (K-10 agar)
# Protocol: as §3, §4, §5, §6, §7
# [17] = system: Trichophyton mentagrophytes; test: MIC of scopularin, agar dilution assay (K-10 agar); conditions: SC2637, 18 h; Trichophyton mentagrophytes SC 2637
# Protocol: as §3, §4, §5, §6, §7
# T1 sequence (P10613 whole entry): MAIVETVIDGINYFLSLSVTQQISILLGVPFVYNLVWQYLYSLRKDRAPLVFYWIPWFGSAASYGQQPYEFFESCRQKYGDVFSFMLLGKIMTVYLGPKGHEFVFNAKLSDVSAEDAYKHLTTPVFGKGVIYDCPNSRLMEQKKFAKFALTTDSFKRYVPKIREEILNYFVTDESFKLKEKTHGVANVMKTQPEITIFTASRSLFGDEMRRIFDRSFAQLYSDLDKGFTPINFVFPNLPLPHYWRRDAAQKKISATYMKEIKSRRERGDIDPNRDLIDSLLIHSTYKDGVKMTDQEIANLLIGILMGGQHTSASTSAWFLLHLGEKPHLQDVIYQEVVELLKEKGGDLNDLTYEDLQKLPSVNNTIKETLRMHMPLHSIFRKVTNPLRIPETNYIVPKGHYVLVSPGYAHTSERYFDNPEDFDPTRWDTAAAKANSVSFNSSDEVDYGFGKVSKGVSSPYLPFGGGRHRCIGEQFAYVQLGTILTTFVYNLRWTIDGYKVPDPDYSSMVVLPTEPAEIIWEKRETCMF
structure (smiles),measurement,setting,value
C/C=C/C=C/C=C(\C)[C@H]1OC[C@@H](C)[C@@H](OC)[C@@H]1OC(=O)CN (relative stereo) [Lanomycin],activity against dermatophytes,[1]; Table 4,showed activity
same,activity against dermatophytes,[1]; Table 6,active
same,MIC,[2],0.4 µg/mL
same,activity against some Candida species,[3],showed activity
"CCC/C=C/C=C/C=C(\C)[C@H]1OC[C@@H](C)[C@@H](OC)[C@@H]1OC(=O)CN (relative stereo) [Scopularin, (2α, 3β, 4α, 5α)-Tetrahydro-4-methoxy-5-methyl-2-(1-methyl-1,3,5-nonatrienyl)-2H-pyran-3-ol, aminoacetate ester]","concentration causing accumulation of lanosterol, consistent with inhibition of lanosterol demethylase",[4],6.7×10^-7
same,MIC,[5],0.4 µg/mL
same,MIC,"[6]; SC2967, 18 h",0.4 µg/mL
same,MIC,"[6]; SC2968, 18 h, Candida krusei SC 2968, read-out: MIC",1.6 µg/mL
same,MIC,"[6]; SC2969, 18 h, Candida krusei SC 2969, read-out: MIC",1.6 µg/mL
same,MIC,[7],25 µg/mL
same,MIC,"[8]; SC2621, 18 h, Candida parakrusei SC 2621",0.8 µg/mL
same,MIC,"[8]; SC2966, 18 h, Candida parakrusei SC 2966",1.6 µg/mL
same,MIC,[9],25 µg/mL
same,MIC,"[10]; SC2210, 18 h, Candida guilliermondii SC 2210",12.5 µg/mL
same,MIC,"[10]; SC2996, 18 h, Candida guilliermondii SC 2996",0.4 µg/mL
same,MIC,[11],50 µg/mL
same,MIC,"[12]; SC10, 18 h, Candida albicans SC 10,102",100 µg/mL
same,MIC,"[12]; SC10, 18 h, Candida albicans SC 10,580",50 µg/mL
same,MIC,"[12]; SC10, 18 h, Candida albicans SC 10,584",25 µg/mL
same,MIC,"[12]; SC10, 18 h, Candida albicans SC 10,585",50 µg/mL
same,MIC,"[12]; SC11, 18 h, Candida albicans SC 11,422",50 µg/mL
same,MIC,"[12]; SC12, 18 h, Candida albicans SC 12,734 (Bacilysin^R)",100 µg/mL
same,MIC,"[12]; SC14, 18 h, Candida albicans SC 14,021 (Aculeacin^R)",50 µg/mL
same,MIC,"[12]; SC5314, 18 h, Candida albicans SC 5314",50 µg/mL
same,MIC,"[12]; SC9177, 18 h, Candida albicans SC 9177",50 µg/mL
same,MIC,"[12]; SC9721, 18 h, Candida albicans SC 9721",50 µg/mL
same,MIC,[13],0.4 µg/mL
same,MIC,[14],25 µg/mL
same,MIC,[15],0.2 µg/mL
same,MIC,"[16]; SC10, 18 h, Candida tropicalis SC 10,597",25 µg/mL
same,MIC,"[16]; SC2963, 18 h, Candida tropicalis SC 2963 (AmphoB^R)",6.3 µg/mL
same,MIC,"[16]; SC8159, 18 h, Candida tropicalis SC 8159",25 µg/mL
same,MIC,"[16]; SC9861, 18 h, Candida tropicalis SC 9861 (AmphoB^R)",25 µg/mL
same,MIC,[17],0.2 µg/mL
